Source: ChEMBL document CHEMBL1134036, “Discovery and SAR of diarylsulfide cyclopropylamide LFA-1/ICAM-1 interaction antagonists” (Bioorg Med Chem Lett, 2001)
Values belong to the compound of their own block, whether it stands above or below them.

What was measured:
[1] = molecular target: T1, Intercellular adhesion molecule (ICAM-1), Integrin alpha-L/beta-2 (Homo sapiens, UniProt P05107+P20701); experiment: Ability to block the adherence of leukocyte function-associated antigen-1 (LFA-1) expressing JY-8 cells and intercellular adhesion molecule (ICAM-1) by 50% in absence of serum; format: cell-based
[2] = molecular target: T2, Intercellular adhesion molecule (ICAM-1), Integrin alpha-L/beta-2 (Homo sapiens) (UniProt P20701+P05362+P05107); conditions: JY-8
Description: 70% inhibition of JY-8 cell adhesion to ICAM-1 via leukocyte function-associated antigen-1 (LFA-1) without serum

[3] = molecular target: T2, Intercellular adhesion molecule (ICAM-1), Integrin alpha-L/beta-2 (Homo sapiens); conditions: JY-8; remark: listed apart in the source
Description: 80% inhibition of JY-8 cell adhesion to ICAM-1 via leukocyte function-associated antigen-1 (LFA-1) withouot serum

[4] = molecular target: T1, Intercellular adhesion molecule (ICAM-1), Integrin alpha-L/beta-2; experiment: 50% inhibition of JY-8 cell adhesion to ICAM-1 via leukocyte function-associated antigen-1 (LFA-1) with 50% FBS; format: cell-based
[5] = molecular target: T2, Intercellular adhesion molecule (ICAM-1), Integrin alpha-L/beta-2 (Homo sapiens); conditions: JY-8; remark: listed apart in the source
Description: 70% inhibition of JY-8 cell adhesion to ICAM-1 via leukocyte function-associated antigen-1 (LFA-1) with 50% FBS

[6] = molecular target: T2, Intercellular adhesion molecule (ICAM-1), Integrin alpha-L/beta-2 (Homo sapiens); conditions: 50% FBS
Description: 80% inhibition of JY-8 cell adhesion to ICAM-1 via leukocyte function-associated antigen-1 (LFA-1) with 50% FBS

[7] = Oral bioavailability of compound at 5 mg/kg after po administration was determined in rat; format: ADME, organism-based; conditions: in vivo
[8] = Cmax of compound at 5 mg/kg after po administration was determined in rat; format: ADME, organism-based; design: dose 5 mg/kg, route oral; conditions: in vivo
[9] = Half life of compound at 5 mg/kg after po administration was determined in rat; format: ADME, organism-based; design: dose 5 mg/kg, route oral; conditions: in vivo

T1 sequence (P20701 whole entry): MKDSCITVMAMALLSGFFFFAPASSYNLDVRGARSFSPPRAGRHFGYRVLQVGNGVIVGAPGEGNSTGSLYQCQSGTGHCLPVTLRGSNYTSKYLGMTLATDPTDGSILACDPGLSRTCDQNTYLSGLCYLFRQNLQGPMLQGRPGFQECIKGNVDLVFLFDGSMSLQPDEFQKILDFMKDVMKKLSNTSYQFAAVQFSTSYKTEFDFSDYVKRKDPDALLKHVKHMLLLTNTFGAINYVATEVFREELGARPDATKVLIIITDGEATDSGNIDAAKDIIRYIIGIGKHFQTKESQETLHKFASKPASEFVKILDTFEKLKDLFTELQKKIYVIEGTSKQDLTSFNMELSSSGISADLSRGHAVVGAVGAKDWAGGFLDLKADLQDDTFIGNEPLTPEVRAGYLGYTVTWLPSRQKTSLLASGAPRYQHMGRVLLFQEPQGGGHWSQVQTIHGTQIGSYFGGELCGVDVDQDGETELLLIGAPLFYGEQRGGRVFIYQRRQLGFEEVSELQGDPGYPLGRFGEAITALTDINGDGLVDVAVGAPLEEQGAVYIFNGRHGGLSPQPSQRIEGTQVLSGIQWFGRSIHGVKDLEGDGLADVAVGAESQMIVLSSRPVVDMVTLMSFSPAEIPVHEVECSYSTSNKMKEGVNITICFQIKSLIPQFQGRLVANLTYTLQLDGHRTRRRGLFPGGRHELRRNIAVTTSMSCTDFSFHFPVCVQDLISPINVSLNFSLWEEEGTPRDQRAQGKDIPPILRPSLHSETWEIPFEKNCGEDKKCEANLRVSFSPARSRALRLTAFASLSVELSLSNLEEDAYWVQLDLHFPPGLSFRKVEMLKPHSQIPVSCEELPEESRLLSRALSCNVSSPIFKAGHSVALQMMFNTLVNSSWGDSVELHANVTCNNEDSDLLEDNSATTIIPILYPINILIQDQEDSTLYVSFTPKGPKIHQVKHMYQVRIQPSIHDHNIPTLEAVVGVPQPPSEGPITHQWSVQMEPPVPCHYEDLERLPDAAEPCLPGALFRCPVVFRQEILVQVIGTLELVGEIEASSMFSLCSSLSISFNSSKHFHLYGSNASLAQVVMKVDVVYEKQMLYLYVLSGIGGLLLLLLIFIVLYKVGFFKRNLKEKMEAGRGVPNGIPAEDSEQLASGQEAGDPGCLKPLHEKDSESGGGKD
T1 sequence (P05362 whole entry, further chain): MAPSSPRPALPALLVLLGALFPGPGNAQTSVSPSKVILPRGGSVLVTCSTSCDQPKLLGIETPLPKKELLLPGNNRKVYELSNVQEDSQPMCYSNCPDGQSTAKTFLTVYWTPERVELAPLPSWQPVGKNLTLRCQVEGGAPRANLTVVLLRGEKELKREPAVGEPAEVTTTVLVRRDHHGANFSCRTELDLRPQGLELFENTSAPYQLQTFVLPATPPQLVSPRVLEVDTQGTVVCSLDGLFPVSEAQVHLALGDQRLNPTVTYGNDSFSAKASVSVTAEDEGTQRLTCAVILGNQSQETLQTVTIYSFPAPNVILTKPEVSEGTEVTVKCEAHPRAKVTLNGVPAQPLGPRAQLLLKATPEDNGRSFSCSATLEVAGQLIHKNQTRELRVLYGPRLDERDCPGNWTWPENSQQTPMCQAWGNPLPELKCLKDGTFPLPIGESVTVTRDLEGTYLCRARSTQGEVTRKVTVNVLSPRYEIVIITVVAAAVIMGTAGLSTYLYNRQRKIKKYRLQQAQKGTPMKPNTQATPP
T1 sequence (P05107 whole entry): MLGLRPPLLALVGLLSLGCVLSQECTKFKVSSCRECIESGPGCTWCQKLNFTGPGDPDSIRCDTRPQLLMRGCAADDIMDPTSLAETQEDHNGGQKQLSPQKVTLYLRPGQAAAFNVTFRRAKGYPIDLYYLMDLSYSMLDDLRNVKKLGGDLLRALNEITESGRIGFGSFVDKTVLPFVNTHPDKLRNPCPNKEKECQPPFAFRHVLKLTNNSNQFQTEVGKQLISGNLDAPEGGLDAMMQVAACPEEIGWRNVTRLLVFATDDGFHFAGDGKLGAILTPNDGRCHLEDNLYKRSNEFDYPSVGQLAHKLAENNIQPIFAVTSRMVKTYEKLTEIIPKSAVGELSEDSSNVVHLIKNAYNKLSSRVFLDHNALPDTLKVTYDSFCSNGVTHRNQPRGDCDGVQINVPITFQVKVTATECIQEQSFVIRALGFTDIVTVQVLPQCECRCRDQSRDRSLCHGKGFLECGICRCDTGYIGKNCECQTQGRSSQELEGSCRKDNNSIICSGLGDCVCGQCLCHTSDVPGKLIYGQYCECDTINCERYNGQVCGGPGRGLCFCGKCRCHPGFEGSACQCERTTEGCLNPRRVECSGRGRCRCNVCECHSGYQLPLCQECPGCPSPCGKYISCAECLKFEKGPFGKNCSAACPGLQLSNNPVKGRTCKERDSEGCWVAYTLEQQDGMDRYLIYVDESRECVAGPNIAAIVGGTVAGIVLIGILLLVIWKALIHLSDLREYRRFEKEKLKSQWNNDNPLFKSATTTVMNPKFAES

IC50 [1]: 620 nM
SMILES: O=C(O)C1CCN(c2ccccc2Sc2ccc(C3CC3C(=O)NCCCN3CCCC3=O)cc2C(F)(F)F)CC1 (stereo unspecified)

IC50 [1]: 40 nM
SMILES: O=C(NCCCN1CCCC1=O)C1CC1c1ccc(Sc2ccccc2N2CCCCC2)c(C(F)(F)F)c1 (stereo unspecified)

SMILES: O=C(O)C1CCCN(c2ccccc2Sc2ccc(C3CC3C(=O)NCCCN3CCCC3=O)cc2C(F)(F)F)C1 (stereo unspecified)
IC50 [1]: 50 nM

IC50 [1]: 115 nM
SMILES: CCOC(=O)C1CCN(c2ccccc2Sc2ccc(C3CC3C(=O)NCCCN3CCCC3=O)cc2C(F)(F)F)CC1 (stereo unspecified)

SMILES: CN1CCN(c2ccccc2Sc2ccc(C3CC3C(=O)NCCCN3CCCC3=O)cc2C(F)(F)F)CC1 (stereo unspecified)
IC50 [1]: 200 nM

IC50 [1]: 100 nM
SMILES: CCOC(=O)C1CCCN(c2ccccc2Sc2ccc(C3CC3C(=O)NCCCN3CCCC3=O)cc2C(F)(F)F)C1 (stereo unspecified)

SMILES: O=C(NCCCN1CCCC1=O)C1CC1c1ccc(Sc2ccccc2N2CCOCC2)c(C(F)(F)F)c1 (stereo unspecified)
IC50 [1]: 15 nM

SMILES: O=C(NCCCN1CCCC1=O)C1CC1c1ccc(Sc2ccccc2N2CCCC2)c(C(F)(F)F)c1 (stereo unspecified)
IC50 [1]: 32 nM

IC50 [1]: 34 nM
SMILES: CC(C)c1ccccc1Sc1ccc(C2CC2C(=O)NCCC(=O)O)c(Cl)c1Cl (single isomer, unassigned)

IC50 [1]: 33 nM
SMILES: CC(C)c1ccccc1Sc1ccc(C2CC2C(=O)N2CCCCC2C(=O)O)c(Cl)c1Cl (single isomer, unassigned)

IC50 [1]: 21 nM
SMILES: CC(C)c1ccccc1Sc1ccc(C2CC2C(=O)N2CCC(C(=O)O)CC2)c(Cl)c1Cl (single isomer, unassigned)

IC50 [1]: 33 nM
SMILES: CC(C)c1ccccc1Sc1ccc(C2CC2C(=O)NCC(=O)O)c(Cl)c1Cl (single isomer, unassigned)

SMILES: CC(C)c1ccccc1Sc1ccc(C2CC2C(=O)N2CCCC(C(=O)O)C2)c(Cl)c1Cl (stereo in doubt)
IC50 [1]: 17 nM

SMILES: CC(C)c1ccccc1Sc1ccc(C2CC2C(=O)NCCCC(=O)O)c(Cl)c1Cl (stereo in doubt)
IC50 [1]: 26 nM

SMILES: CC(C)c1ccccc1Sc1ccc(C2CC2C(=O)NCCCN2CCCC2=O)c(Cl)c1Cl (stereo in doubt)
IC50 [1]: 6 nM

SMILES: CC(C)c1ccccc1Sc1ccc(C2CC2C(=O)NCCCN2CCCC2=O)c(Cl)c1Cl (stereo in doubt; 12a) [listing 1 of 2 here]
IC50 [1]: 7 nM

SMILES: CC(C)c1ccccc1Sc1ccc(C2CC2C(=O)NCCCN2CCCC2=O)c(Cl)c1Cl (stereo in doubt; 12a) [listing 2 of 2 here]
IC70 [2]: 40 nM | IC80 [3]: 63 nM

IC50 [1]: 12 nM
SMILES: CC(C)c1ccccc1Sc1ccc(C2CC2C(=O)NCC(=O)O)c(Cl)c1Cl (stereo in doubt; 13a) [listing 1 of 2 here]

IC70 [2]: 50 nM | IC80 [3]: 95 nM
SMILES: CC(C)c1ccccc1Sc1ccc(C2CC2C(=O)NCC(=O)O)c(Cl)c1Cl (stereo in doubt; 13a) [listing 2 of 2 here]

IC50 [1]: 8 nM
SMILES: CC(C)c1ccccc1Sc1ccc(C2CC2C(=O)NCCC(=O)O)c(Cl)c1Cl (stereo in doubt; 14a) [listing 1 of 2 here]

IC70 [2]: 26 nM | IC80 [3]: 54 nM
SMILES: CC(C)c1ccccc1Sc1ccc(C2CC2C(=O)NCCC(=O)O)c(Cl)c1Cl (stereo in doubt; 14a) [listing 2 of 2 here]

SMILES: CC(C)c1ccccc1Sc1ccc(C2CC2C(=O)NCCCC(=O)O)c(Cl)c1Cl (stereo in doubt; 15a) [listing 1 of 2 here]
IC50 [1]: 7 nM

SMILES: CC(C)c1ccccc1Sc1ccc(C2CC2C(=O)NCCCC(=O)O)c(Cl)c1Cl (stereo in doubt; 15a) [listing 2 of 2 here]
IC70 [2]: 16 nM | IC80 [3]: 9 nM

IC50 [1]: 13 nM | IC50 [4]: 1480 nM
SMILES: CC(C)c1ccccc1Sc1ccc(C2CC2C(=O)N2CCCCC2C(=O)O)c(Cl)c1Cl (stereo in doubt; 16a) [listing 1 of 2 here]

IC70 [2]: 55 nM | IC70 [5]: 3520 nM | IC80 [3]: 110 nM | IC80 [6]: 8820 nM
SMILES: CC(C)c1ccccc1Sc1ccc(C2CC2C(=O)N2CCCCC2C(=O)O)c(Cl)c1Cl (stereo in doubt; 16a) [listing 2 of 2 here]

SMILES: CC(C)c1ccccc1Sc1ccc(C2CC2C(=O)N2CCCC(C(=O)O)C2)c(Cl)c1Cl (stereo in doubt; 17a) [listing 1 of 2 here]
IC50 [1]: 6 nM

SMILES: CC(C)c1ccccc1Sc1ccc(C2CC2C(=O)N2CCCC(C(=O)O)C2)c(Cl)c1Cl (stereo in doubt; 17a) [listing 2 of 2 here]
IC70 [2]: 13 nM | IC80 [3]: 25 nM

IC50 [1]: 9 nM
SMILES: CC(C)c1ccccc1Sc1ccc(C2CC2C(=O)N2CCC(C(=O)O)CC2)c(Cl)c1Cl (stereo in doubt; 18a) [listing 1 of 2 here]

IC70 [2]: 24 nM | IC80 [3]: 54 nM
SMILES: CC(C)c1ccccc1Sc1ccc(C2CC2C(=O)N2CCC(C(=O)O)CC2)c(Cl)c1Cl (stereo in doubt; 18a) [listing 2 of 2 here]

SMILES: O=C(O)C1CCCN(c2ccccc2Sc2ccc(C3CC3C(=O)NCCCN3CCCC3=O)c(Cl)c2Cl)C1 (stereo in doubt; 27) [listing 1 of 2 here]
IC50 [1]: 15 nM | IC50 [4]: 33 nM

SMILES: O=C(O)C1CCCN(c2ccccc2Sc2ccc(C3CC3C(=O)NCCCN3CCCC3=O)c(Cl)c2Cl)C1 (stereo in doubt; 27) [listing 2 of 2 here]
IC70 [2]: 26 nM | IC70 [5]: 120 nM | IC80 [3]: 40 nM | IC80 [6]: 210 nM

SMILES: O=C(O)C1CCCN(c2ccccc2Sc2ccc(C3CC3C(=O)NCCCN3CCCC3=O)c(Cl)c2Cl)C1 (stereo in doubt; 28) [listing 1 of 2 here]
bioavailability [7]: 27% | Cmax [8]: 350 ng/mL | half-life [9]: 1.2 h | IC50 [1]: 10 nM | IC50 [4]: 29 nM

SMILES: O=C(O)C1CCCN(c2ccccc2Sc2ccc(C3CC3C(=O)NCCCN3CCCC3=O)c(Cl)c2Cl)C1 (stereo in doubt; 28) [listing 2 of 2 here]
IC70 [2]: 21 nM | IC70 [5]: 116 nM | IC80 [3]: 26 nM | IC80 [6]: 199 nM

SMILES: O=C(O)C1CCCN(c2ccccc2Sc2ccc(C3CC3C(=O)NCCCN3CCCC3=O)c(Cl)c2Cl)C1 (stereo in doubt; 29) [listing 1 of 2 here]
IC50 [1]: 31 nM | IC50 [4]: 640 nM

SMILES: O=C(O)C1CCCN(c2ccccc2Sc2ccc(C3CC3C(=O)NCCCN3CCCC3=O)c(Cl)c2Cl)C1 (stereo in doubt; 29) [listing 2 of 2 here]
IC70 [2]: 97 nM | IC70 [5]: 2100 nM | IC80 [3]: 142 nM | IC80 [6]: 3200 nM

SMILES: O=C(O)C1CCCN(c2ccccc2Sc2ccc(C3CC3C(=O)NCCCN3CCCC3=O)c(Cl)c2Cl)C1 (stereo in doubt; 30) [listing 1 of 2 here]
IC50 [1]: 5 nM | IC50 [4]: 27 nM

SMILES: O=C(O)C1CCCN(c2ccccc2Sc2ccc(C3CC3C(=O)NCCCN3CCCC3=O)c(Cl)c2Cl)C1 (stereo in doubt; 30) [listing 2 of 2 here]
IC70 [2]: 10 nM | IC70 [5]: 89 nM | IC80 [3]: 19 nM | IC80 [6]: 133 nM
